# In patent US20090221523A1 (priority 2005, published 2009):
# “And” between values parts separate entries of the source, which are not always exact repeats. Equal values may be shown once. Read-outs that look alike come from different tables or passages of the source. Marks after values point to notes of the source that are not given here.
# Assays:
# [1] = test system: HFF cells; assay: cells; type: cell-based; conditions: Homo sapiens, 72 h, read-out: IC50, 50% inhibition of cell proliferation
# [2] = in vitro; conditions: human
# [3] = test system: ΔcrmA (TK+) CV strain; assay: microbe, parasite or virus in culture; type: cell-based; conditions: Cowpox virus, HFF, read-out: EC50 CV (Δcrm lacZ) TK+
# [4] = test system: human herpesvirus 6; type: cell-based; conditions: betaherpesvirus without TK activity
# [5] = test system: vaccinia virus (Copenhagen Strain); assay: microbe, parasite or virus in culture; type: cell-based
# [6] = test system: HSV-1 strain E377; parameters: species or system BALB/c mice; conditions: mouse, in vivo
# [7] = test system: vaccinia (WR strain); parameters: species or system mice; Mean Lung Virus Titer: unit not given here; conditions: mouse, in vivo
# [8] = test system: vaccinia (HID strain); parameters: species or system mice; Mean Lung Virus Titer: unit not given here; conditions: mouse, in vivo
# [9] = test system: Human herpesvirus 8; conditions: Zhu, et al. 2005; cited from earlier work
# [10] = test system: cowpox virus (Brighton strain); assay: microbe, parasite or virus in culture; type: cell-based; conditions: HFF, read-out: Cowpox (Brighton) EC50
# [11] = mouse, in vivo
# [12] = test system: cowpox virus (Brighton strain); assay: microbe, parasite or virus in culture; type: cell-based; conditions: HFF, read-out: CV (Brighton) EC50
# [13] = test system: human cytomegalovirus; type: cell-based
# [14] = test system: Epstein-Barr virus; assay: microbe, parasite or virus in culture; type: cell-based; conditions: human gammaherpesvirus 4, read-out: EC50, inhibition of Epstein-Barr virus replication
# [15] = test system: WR strain of VV; assay: microbe, parasite or virus in culture; type: cell-based; conditions: Orthopoxvirus vaccinia, HFF, 24 h, read-out: EC50 for inhibiting VV DNA synthesis
# [16] = test system: vaccinia WR strain; parameters: species or system BALB/c mice; conditions: mouse, in vivo
# [17] = test system: vaccinia virus (Copenhagen Strain); assay: microbe, parasite or virus in culture; type: cell-based; conditions: Orthopoxvirus vaccinia, HFF, read-out: Vaccinia (Copenhagen) EC50
# [18] = test system: VV strain WR; parameters: species or system BALB/c mice; conditions: mouse, in vivo, ip
# [19] = test system: HFF cells; conditions: human
# [20] = test system: vaccinia IHD strain; parameters: species or system BALB/c mice; conditions: mouse, in vivo
# [21] = test system: HSV-1 strain F; assay: microbe, parasite or virus in culture; type: cell-based, herpes simplex virus; conditions: Human alphaherpesvirus 1, HFF, read-out: EC50 HSV-1 (F) TK+
# [22] = test system: TK:GFP lacZ (TK−) CV strain; assay: microbe, parasite or virus in culture; type: cell-based; conditions: Cowpox virus, HFF, read-out: EC50 CV (TK:gpf lacZ)
# [23] = test system: cowpox Brighton Strain; parameters: species or system BALB/c mice; conditions: mouse, in vivo; for MDD, mean day of death / Mortality % / Mortality No. dead/total no.: ip
# [24] = test system: HSV-1 TK− strain DM2.1; assay: microbe, parasite or virus in culture; type: cell-based, herpes simplex virus; conditions: Human alphaherpesvirus 1, HFF, read-out: EC50 HSV-1 (DM2.1) TK−
# [25] = test system: cowpox Brighton Strain; parameters: species or system BALB/c mice; conditions: mouse, in vivo
compound,measurement,setting,value
"Cc1cn([C@H]2C[C@H](O)[C@]3(CO)C[C@H]23)c(=O)[nH]c1=O [N-MCT, North-methanocarbathymidine]",IC50,[1],29 ± 5.4 µg/mL
same,CC50,[2],> 100 µg/mL
same,EC50,[3],2 ± 2 µg/mL
same,Activity against human herpesvirus 6,[4],inactive
same,VV (Copenhagen) EC50,[5],0.55 ± 0.13 µg/mL
same,EC50,"[5]; Orthopoxvirus vaccinia, HFF, read-out: VV (Copenhagen) EC50",0.6 µg/mL
same,"MDD, mean day of death",[6],20 days
same,Mortality %,[6],0% and 7%
same,Mortality No. dead/total no.,[6],0/15 and 1/15
same,MDD (mean day of death ± SD of mice that died prior to day 21),[7],8.3 ± 0.6 days and 11.2 ± 4.7 days
same,Mean Lung Virus Titer,[7],7.9 ± 0.2 and 8.2 ± 0.1 and 8.3 ± 0.2
same,Survivors/Total,[7],7/10*** and 4/10* and 1/10
same,"MDD, mean day of death",[8],>21*** day
same,Mean Lung Virus Titer,[8],7.1 ± 0.3 and 8.1 ± 0.1 and 8.3 ± 0.1
same,Survivors/Total,[8],10/10***
same,Sensitivity of human herpesvirus 8 to the drug,[9],sensitive
same,EC50,[10],0.31 µg/mL
same,Tolerability in mice,[11],well tolerated
same,EC50,[12],1.5 ± 1.2 µg/mL
same,Activity against human cytomegalovirus,[13],inactive
same,EC50,[14],0.45 µg/mL
same,EC50,[15],1 µg/mL
same,Number of Survivors,[16],0/10
same,EC50,[17],0.73 µg/mL
same,"MDD, mean day of death",[18]; 5.6 mg/kg,8.2 days
same,Mortality %,[18]; 5.6 mg/kg,80%
same,Mortality No. dead/total no.,[18]; 5.6 mg/kg,12/15
same,"MDD, mean day of death",[18]; 16.7 mg/kg,7.5 days
same,Mortality %,[18]; 16.7 mg/kg,13%
same,Mortality No. dead/total no.,[18]; 16.7 mg/kg,2/15
same,Mortality %,[18]; 50 mg/kg,0%
same,Mortality No. dead/total no.,[18]; 50 mg/kg,0/15
same,CC50,[19],>100 ± 0 µg/mL
same,Mean Day of Death,[20],8.7 days
same,Mortality Number,[20],0/15 and 3/15
same,Animals that survived,[20]; 5.6 mg/kg,80%
same,"MDD, mean day of death","[20]; ip, 5.6 mg/kg",8.7 days
same,Mortality %,"[20]; ip, 5.6 mg/kg",20%
same,Mortality No. dead/total no.,"[20]; ip, 5.6 mg/kg",3/15
same,Mortality %,"[20]; ip, 16.7 mg/kg",0%
same,Mortality No. dead/total no.,"[20]; ip, 16.7 mg/kg",0/15
same,Mortality %,"[20]; ip, 50 mg/kg",0%
same,Mortality No. dead/total no.,"[20]; ip, 50 mg/kg",0/15
same,EC50,[21],0.07 ± 0.02 µg/mL
same,EC50,[22],28 ± 2.3 µg/mL
same,Mean Day of Death,[23],14.0 days and 7.5 days and 13.3 days
same,Mortality Number,[23],6/15 and 2/15 and 3/15
same,"MDD, mean day of death",[23]; 5.6 mg/kg,14.0 days
same,Mortality %,[23]; 5.6 mg/kg,40%
same,Mortality No. dead/total no.,[23]; 5.6 mg/kg,6/15
same,"MDD, mean day of death",[23]; 16.7 mg/kg,13.3 days
same,Mortality %,[23]; 16.7 mg/kg,20%
same,Mortality No. dead/total no.,[23]; 16.7 mg/kg,3/15
same,"MDD, mean day of death",[23]; 50 mg/kg,7.5 days
same,Mortality %,[23]; 50 mg/kg,13%
same,Mortality No. dead/total no.,[23]; 50 mg/kg,2/15
same,EC50,[24],6.3 ± 3.9 µg/mL
same,Number of Survivors,[25],9/10 and 2/10 and 1/10
